Assay in all cases: URAT1 uric acid transport activity assay
Experiment [1] has as its target T1, r-Y365F rURAT1 point mutant (Rattus norvegicus, UniProt Q3ZAV1, Y365F).
T1 sequence (Q3ZAV1 1-553 Y365F): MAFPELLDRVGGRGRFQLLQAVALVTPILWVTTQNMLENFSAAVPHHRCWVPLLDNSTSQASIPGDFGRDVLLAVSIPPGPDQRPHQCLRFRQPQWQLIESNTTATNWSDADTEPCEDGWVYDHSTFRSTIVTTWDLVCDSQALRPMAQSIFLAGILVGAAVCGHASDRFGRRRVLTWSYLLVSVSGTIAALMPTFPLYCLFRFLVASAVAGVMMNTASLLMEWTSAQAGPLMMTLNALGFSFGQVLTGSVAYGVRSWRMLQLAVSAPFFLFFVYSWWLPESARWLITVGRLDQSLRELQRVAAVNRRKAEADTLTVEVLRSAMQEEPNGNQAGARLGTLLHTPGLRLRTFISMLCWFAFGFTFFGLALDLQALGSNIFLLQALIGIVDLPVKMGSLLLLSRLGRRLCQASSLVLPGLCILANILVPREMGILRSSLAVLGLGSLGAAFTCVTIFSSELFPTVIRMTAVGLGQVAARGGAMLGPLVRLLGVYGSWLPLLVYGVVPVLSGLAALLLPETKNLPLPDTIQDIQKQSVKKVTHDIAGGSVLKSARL
Type of experiment: cell-based. The settings on record: for fold increased affinity of r-Y365F compared to rURAT1: from IC50 values. An outline of the steps: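 Rat URAT1 point or double mutants in pCMV6/neo were transiently transfected into cells and assayed the next day. Compounds were preincubated for 5 minutes, then 100 μM 14C-uric acid uptake was measured over 10 minutes in triplicate. IC50 came from four-parameter variable-slope nonlinear regression.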

A further experiment has as its target T2, r-h TM1-C URAT1 chimera (Rattus norvegicus, UniProt Q3ZAV1, L29M/N35S/P27S/T32C/V31L).
T2 sequence (Q3ZAV1 1-553 P27S/L29M/V31L/T32C/N35S): T1 sequence (Q3ZAV1 1-553 Y365F) with P27S, L29M, V31L, T32C, N35S, F365Y
Type of experiment: cell-based, human/rat. An excerpt: (§1) hURAT1 (GenBank BC053348.1) and rURAT1 (NCBI NM_001034943.1) genes were purchased from Origene Technologies, Inc. and subcloned into pCMV6/neo using NotI, creating pCMV6/neo-hURAT1 and pCMV6/neo-rURAT1. Mutants were produced by polymerase chain reaction (PCR) or site-directed mutagenesis using the QuikChange Lightning Multi Site-Directed Mutagenesis Kit (Agilent Technologies). […] Detailed methods are provided in Supplementary Methods, and primers are listed in Supplementary Table 1. […] Residues in rURAT1 and hOAT1 that correspond to the residues in hURAT1 were identified from aligned protein sequences (Supplementary Fig. 1)[50].
(§2) DNA (10 μg) was mixed with 30 μl of DreamFect Gold (Boca Scientific) in 2 ml OptiMem (Life Technologies). After 20 minutes, 18 ml of media containing 2 × 10^7 cells in suspension was added and mixed, and 200 μl per well were plated onto white clear-bottomed poly-D-lysine coated 96-well plates (BD Biosciences). The cells were assayed the following day.
(§3) Compounds were serially diluted into assay buffer and added to the cells for 5 minutes prior to addition of radiolabelled uric acid substrate. URAT1-expressing cells were incubated with 100 μM ^14C-uric acid for 10 minutes. […] Each treatment was measured in triplicate.
(§4) Unlabelled uric acid was prepared at a 20 mM stock just prior to use in a solution containing 20 mM dibasic potassium phosphate and 20 mM potassium hydroxide.
(§5) Nonlinear regression analyses using GraphPad Prism software were used to calculate the potency of URAT1 inhibitors (IC50 values) from log (inhibitor) versus response - variable slope (four parameters) equations. Statistical significance was assessed using Student’s unpaired t-tests.

The target of the next experiment is T3, r-h TM1-N URAT1 chimera (Rattus norvegicus, UniProt Q3ZAV1, A21T/L18V/T26V/V22M/V25M).
T3 sequence (Q3ZAV1 1-553 L18V/A21T/V22M/V25M/T26V): T1 sequence (Q3ZAV1 1-553 Y365F) with L18V, A21T, V22M, V25M, T26V, F365Y
The format is cell-based, human/rat.
Excerpt: as §1, §2, §3, §4, §5

Where [2] appears, read: r-Y365F, MES pH 5.5, 100 μM 14C-uric acid, read-out: IC50 (uric acid transport).

Where a chain is given by its changes, count along the chain named. Read-outs that look alike come from different tables or passages of the source.

One may read the IC50 as the concentration that inhibits the measured activity by half. For `CCc1oc2ccccc2c1C(=O)c1cc(Br)c(O)c(Br)c1` [benzbromarone], the 50% inhibitory concentration (IC50) in experiment [1] turned out to be 9.4 ± 1.6 µM; against r-h TM1-C URAT1 chimera, 12 ± 0.78 µM; on r-h TM1-N URAT1 chimera it was 16 ± 0.76 µM.

Regarding `O=C(O)CSc1nnc(Br)n1-c1ccc(C2CC2)c2ccccc12` [lesinurad, 2-((5-bromo-4-(4-cyclopropylnaphthalen-1-yl)-4H-1,2,4-triazol-3-yl)thio)acetic acid], the IC50 amounted to 15 ± 3 µM in experiment [1] (setting [2]); 17 ± 2 µM on r-h TM1-C URAT1 chimera (r-h TM1-C, MES pH 5.5, 100 μM 14C-uric acid, read-out: IC50 (uric acid transport)); 40 ± 7 µM on r-h TM1-N URAT1 chimera (r-h TM1-N, MES pH 5.5, 100 μM 14C-uric acid, read-out: IC50 (uric acid transport)).

As to `O=C1C(CC[S+]([O-])c2ccccc2)C(=O)N(c2ccccc2)N1c1ccccc1` (stereo not drawn) [sulfinpyrazone], the “fold increased affinity of r-Y365F compared to rURAT1” value in experiment [1] is 2.7 fold. Moreover, the IC50 in experiment [1] (r-Y365F, HEPES pH 7.3, 100 μM 14C-uric acid, read-out: IC50 (uric acid transport)) came out at 255 ± 27 µM; at r-h TM1-C URAT1 chimera (r-h TM1-C, HEPES pH 7.3, 100 μM 14C-uric acid, read-out: IC50 (uric acid transport)), 25 ± 6.7 µM; on r-h TM1-N URAT1 chimera (r-h TM1-N, HEPES pH 7.3, 100 μM 14C-uric acid, read-out: IC50 (uric acid transport)), 12 ± 2.6 µM.

`O=c1[nH]c(=O)c2[nH]c(=O)[nH]c2[nH]1` [uric acid]: the “fold increased affinity of r-Y365F compared to rURAT1” value in experiment [1] turned out to be 1.6 fold. For the same compound, in experiment [1] (setting [2]), the IC50 was determined as 1640 µM.
